As a reminder, the pIC50 is the negative decadic logarithm of the IC50, by convention in mol/L.

pIC50: −log10 of the molar value. “And” between values parts separate entries of the source, which are not always exact repeats. Equal values may be shown once.

This assay addresses T1, Histone deacetylase 8 (Homo sapiens, UniProt Q9BY41).
T1 sequence (Q9BY41 whole entry): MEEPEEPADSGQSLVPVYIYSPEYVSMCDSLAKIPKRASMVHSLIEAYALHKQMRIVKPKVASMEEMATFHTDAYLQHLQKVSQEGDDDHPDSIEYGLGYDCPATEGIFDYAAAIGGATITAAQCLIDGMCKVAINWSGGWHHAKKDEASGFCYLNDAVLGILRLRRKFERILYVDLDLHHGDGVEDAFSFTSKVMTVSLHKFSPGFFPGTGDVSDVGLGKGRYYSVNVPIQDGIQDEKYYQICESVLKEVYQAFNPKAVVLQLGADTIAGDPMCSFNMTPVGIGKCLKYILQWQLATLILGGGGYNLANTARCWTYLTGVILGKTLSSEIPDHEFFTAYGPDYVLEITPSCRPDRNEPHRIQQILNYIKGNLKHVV
The experiment in a line: Enzyme inhibition assay. The procedure: The nucleus extract […] HDAC8 enzyme was expressed in Escherichia coli. Boc-Lys (acetyl)-AMC was used as the substrate of HDAC. SAHA which is the HDAC inhibitor on market was used as a positive control. The compounds were diluted to six concentrations (25, 5, 1, 0.2, 0.04 and 0.008 uM/L) to investigate their ability of inhibiting HDAC activity.
Take `O=C(CCCCCNC(=O)c1ccc(NC(=O)N[C@H](C(=O)NCc2ccc(F)cc2)c2ccccc2)cc1)NO` [(S)-4-(3-(2-((4-fluorobenzyl)amino)-2-oxo-1-phenylethyl)ureido)-N-(6-(hydroxyamino)-6-oxohexyl)benzamide (L15)]: the pIC50 was 5.97 and 5.92.

Molecule `O=C(CCCCCNC(=O)c1ccc(NC(=O)N[C@H](C(=O)Nc2cccc(Cl)c2)c2ccccc2)cc1)NO` [(S)-4-(3-(2-((3-chlorophenyl)amino)-2-oxo-1-phenylethyl)ureido)-N-(6-(hydroxyamino)-6-oxohexyl)benzamide (L12)] had a negative logarithm of the IC50 (pIC50) of 5.89.

For `Cc1ccccc1NC(=O)[C@@H](NC(=O)Nc1ccc(C(=O)NCCCCCC(=O)NO)cc1)c1ccccc1` [(S)-N-(6-(hydroxyamino)-6-oxohexyl)-4-(3-(2-oxo-1-phenyl-2-(o-tolylamino)ethyl)ureido)benzamide (L6)], the pIC50 is 5.87.

`O=C(CCCCCNC(=O)c1ccc(NC(=O)N[C@H](C(=O)Nc2cccc(C(F)(F)F)c2)c2ccccc2)cc1)NO` [(S)-N-(6-(hydroxyamino)-6-oxohexyl)-4-(3-(2-oxo-1-phenyl-2-((3-(trifluoromethyl)phenyl)amino)ethyl)ureido)benzamide (L8)] had a pIC50 of 6.01.

`O=C(CCCCCNC(=O)c1ccc(NC(=O)N[C@H](C(=O)NCc2ccccc2)c2ccccc2)cc1)NO` [(S)-4-(3-(2-(benzylamino)-2-oxo-1-phenylethyl)ureido)-N-(6-(hydroxyamino)-6-oxohexyl)benzamide (L1)] had a pIC50 of 5.82.

Take `Cc1cc(C)cc(NC(=O)[C@@H](NC(=O)Nc2ccc(C(=O)NCCCCCC(=O)NO)cc2)c2ccccc2)c1` [(S)-4-(3-(2-((3,5-dimethylphenyl)amino)-2-oxo-1-phenylethyl)ureido)-N-(6-(hydroxyamino)-6-oxohexyl)benzamide (L13)]: the pIC50 was 5.78.

`Cc1cccc(NC(=O)[C@@H](NC(=O)Nc2ccc(C(=O)NCCCCCC(=O)NO)cc2)c2ccccc2)c1` [(S)-N-(6-(hydroxyamino)-6-oxohexyl)-4-(3-(2-oxo-1-phenyl-2-(m-tolylamino)ethyl)ureido)benzamide (L18)] gave a negative-log IC50 (pIC50) of 5.88.

`CC(C)c1cccc(C(C)C)c1NC(=O)[C@@H](NC(=O)Nc1ccc(C(=O)NCCCCCC(=O)NO)cc1)c1ccccc1` [(S)-4-(3-(2-((2,6-diisopropylphenyl)amino)-2-oxo-1-phenylethyl)ureido)-N-(6-(hydroxyamino)-6-oxohexyl)benzamide (L17)] gave a pIC50 of 5.75.

On to `CC(C)(C)OC(=O)NC(C(=O)Nc1ccc(C(=O)NO)cc1)c1ccccc1` (configuration not stated) [phenylglycine containing lead compound (4h)], for which the pIC50 was 5.82.

Take `Cc1ccc(NC(=O)[C@@H](NC(=O)Nc2ccc(C(=O)NCCCCCC(=O)NO)cc2)c2ccccc2)cc1` [(S)-N-(6-(hydroxyamino)-6-oxohexyl)-4-(3-(2-oxo-1-phenyl-2-(p-tolylamino)ethyl)ureido)benzamide (L9)]: the pIC50 was 5.73.

For `O=C(CCCCCNC(=O)c1ccc(NC(=O)N[C@H](C(=O)Nc2ccccc2F)c2ccccc2)cc1)NO` [(S)-4-(3-(2-((2-fluorophenyl)amino)-2-oxo-1-phenylethyl)ureido)-N-(6-(hydroxyamino)-6-oxohexyl)benzamide (L2)], the pIC50 is 5.88.

Turning to `O=C(CCCCCNC(=O)c1ccc(NC(=O)N[C@H](C(=O)Nc2ccccc2O)c2ccccc2)cc1)NO` [(S)-N-(6-(hydroxyamino)-6-oxohexyl)-4-(3-(2-((2-hydroxyphenyl)amino)-2-oxo-1-phenylethyl)ureido)benzamide (L11)], the pIC50 is 5.88.

Take `O=C(CCCCCNC(=O)c1ccc(NC(=O)N[C@H](C(=O)Nc2ccc(Cl)cc2Cl)c2ccccc2)cc1)NO` [(S)-4-(3-(2-((2,4-dichlorophenyl)amino)-2-oxo-1-phenylethyl)ureido)-N-(6-(hydroxyamino)-6-oxohexyl)benzamide (L19)]: the pIC50 was 5.80.

Consider `O=C(CCCCCNC(=O)c1ccc(NC(=O)N[C@H](C(=O)Nc2ccco2)c2ccccc2)cc1)NO` [(S)-4-(3-(2-(furan-2-ylamino)-2-oxo-1-phenylethyl)ureido)-N-(6-(hydroxyamino)-6-oxohexyl)benzamide (L5)], for which the negative logarithm of the IC50 (pIC50) is 5.84.

The molecule `COc1ccccc1NC(=O)[C@@H](NC(=O)Nc1ccc(C(=O)NCCCCCC(=O)NO)cc1)c1ccccc1` [(S)-N-(6-(hydroxyamino)-6-oxohexyl)-4-(3-(2-((2-methoxyphenyl)amino)-2-oxo-1-phenylethyl)ureido)benzamide (L10)] showed a negative-log IC50 (pIC50) of 5.75.

In turn, `CC(C)(C)c1ccc(NC(=O)[C@@H](NC(=O)Nc2ccc(C(=O)NCCCCCC(=O)NO)cc2)c2ccccc2)cc1` [(S)-4-(3-(2-((4-(tert-butyl)phenyl)amino)-2-oxo-1-phenylethyl)ureido)-N-(6-(hydroxyamino)-6-oxohexyl)benzamide (L4)] had a pIC50 of 5.63.

`O=C(CCCCCNC(=O)c1ccc(NC(=O)N[C@H](C(=O)Nc2ccc(F)cc2)c2ccccc2)cc1)NO` [(S)-4-(3-(2-((4-fluorophenyl)amino)-2-oxo-1-phenylethyl)ureido)-N-(6-(hydroxyamino)-6-oxohexyl)benzamide (L3)] had a pIC50 of 5.75.

Values taken from BindingDB's records for doi:10.3109/14756366.2013.827678 (Qingdao University, 2014).
